Assay results published in ChEMBL document CHEMBL1201862, “PubChem BioAssay data set” (2004).
Calls of active or inactive are those of the source.

How the values were obtained:
Protein skinhead-1 = target: T1, Protein skinhead-1 (Caenorhabditis elegans, UniProt P34707); assay type: functional
T1 sequence (P34707 whole entry): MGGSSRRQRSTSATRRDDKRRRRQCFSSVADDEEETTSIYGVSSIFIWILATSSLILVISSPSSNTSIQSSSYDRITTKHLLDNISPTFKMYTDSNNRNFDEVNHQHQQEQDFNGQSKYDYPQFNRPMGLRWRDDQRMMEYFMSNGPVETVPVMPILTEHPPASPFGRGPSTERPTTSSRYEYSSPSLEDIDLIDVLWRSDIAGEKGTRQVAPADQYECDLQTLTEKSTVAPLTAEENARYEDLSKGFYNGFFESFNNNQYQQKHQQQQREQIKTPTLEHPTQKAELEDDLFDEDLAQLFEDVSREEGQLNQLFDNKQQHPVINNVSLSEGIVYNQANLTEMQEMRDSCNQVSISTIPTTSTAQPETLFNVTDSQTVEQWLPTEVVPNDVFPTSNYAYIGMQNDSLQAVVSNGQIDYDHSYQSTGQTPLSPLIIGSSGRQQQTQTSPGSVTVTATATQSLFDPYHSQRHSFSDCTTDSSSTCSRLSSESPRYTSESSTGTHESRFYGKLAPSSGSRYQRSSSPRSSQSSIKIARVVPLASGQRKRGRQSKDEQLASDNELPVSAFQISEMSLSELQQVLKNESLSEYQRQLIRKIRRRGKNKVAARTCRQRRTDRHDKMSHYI

Cytochrome P450 3A4 = Cytochrome P450 3A4 (Homo sapiens, UniProt P08684);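 also: CYP3A4 tested as one member of a cytochrome P450 panel screen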
[1] = target: Induced myeloid leukemia cell differentiation protein Mcl-1 (Homo sapiens, UniProt Q07820); assay type: functional
Large T antigen = Large T antigen (Simian virus 40, UniProt P03070); assay type: functional, Betapolyomavirus macacae;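 also: Confirmatory-stage PubChem screen for compounds that inhibit SV40 T antigen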
Aminopeptidase N = target: T2, Aminopeptidase N (Plasmodium falciparum FcB1/Columbia, UniProt O96935); assay: P. falciparum M1AAP inhibitors, biochemical, fluorogenic H-Leu-NHMec substrate, 1536-well (AID 1445); set-up: species or system Plasmodium falciparum 3D7, 3D7
T2 sequence (O96935 whole entry): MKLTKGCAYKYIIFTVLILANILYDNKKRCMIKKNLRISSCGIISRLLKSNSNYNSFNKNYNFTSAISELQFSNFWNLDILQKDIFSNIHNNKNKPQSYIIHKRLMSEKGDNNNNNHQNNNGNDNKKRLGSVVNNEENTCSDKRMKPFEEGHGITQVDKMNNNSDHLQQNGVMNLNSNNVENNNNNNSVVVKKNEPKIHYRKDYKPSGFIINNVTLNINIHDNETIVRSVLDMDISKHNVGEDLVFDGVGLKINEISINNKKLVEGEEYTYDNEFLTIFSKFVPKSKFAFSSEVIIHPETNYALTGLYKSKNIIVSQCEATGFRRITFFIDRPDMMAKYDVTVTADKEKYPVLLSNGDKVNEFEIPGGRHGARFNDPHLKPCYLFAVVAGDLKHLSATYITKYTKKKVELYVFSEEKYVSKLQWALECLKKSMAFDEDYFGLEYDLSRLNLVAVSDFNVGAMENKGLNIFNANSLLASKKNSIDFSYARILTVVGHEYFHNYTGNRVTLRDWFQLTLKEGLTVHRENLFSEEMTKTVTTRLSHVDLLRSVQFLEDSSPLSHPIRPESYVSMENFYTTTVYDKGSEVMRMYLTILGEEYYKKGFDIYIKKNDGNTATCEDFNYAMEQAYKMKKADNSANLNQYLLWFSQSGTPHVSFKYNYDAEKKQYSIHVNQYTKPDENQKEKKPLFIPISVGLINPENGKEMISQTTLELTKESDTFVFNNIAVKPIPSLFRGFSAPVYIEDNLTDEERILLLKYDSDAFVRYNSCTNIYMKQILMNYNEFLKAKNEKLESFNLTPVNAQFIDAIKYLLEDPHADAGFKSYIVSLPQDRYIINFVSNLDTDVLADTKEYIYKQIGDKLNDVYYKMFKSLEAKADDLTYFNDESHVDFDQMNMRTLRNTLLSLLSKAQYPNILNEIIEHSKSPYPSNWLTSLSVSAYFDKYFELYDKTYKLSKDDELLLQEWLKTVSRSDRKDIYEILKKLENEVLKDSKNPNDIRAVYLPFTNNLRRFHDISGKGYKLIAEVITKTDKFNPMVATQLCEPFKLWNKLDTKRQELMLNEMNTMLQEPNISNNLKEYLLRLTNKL

BJ [2] = assay: cytotoxicity toward BJ-TERT-LT-ST fibroblasts, dose response, cell-based, RAS-independent, luminescence (AID 1935); assay type: functional; conditions: Homo sapiens;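 also: BJ fibroblasts immortalized with TERT plus LT and ST oncogenes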
BJ [3] = assay: cells; assay type: functional, cell-based; conditions: Homo sapiens
Vero = assay: cells; assay type: functional; conditions: Chlorocebus sabaeus
[4] = target: T3, Heat shock factor protein 1 (Mus musculus, UniProt P38532); assay: inhibition of MG132-induced HSE-luciferase signal, confirmation, cell-based, NIH3T3, luminescence, dose retest (AID 2382); assay type: functional;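 also: NIH3T3 fibroblasts with HSF1-driven luciferase reporter stressed by proteasome inhibitor MG132; luminescence from HSF1-driven luciferase expression after 8 hours of MG132 stress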
T3 sequence (P38532 whole entry): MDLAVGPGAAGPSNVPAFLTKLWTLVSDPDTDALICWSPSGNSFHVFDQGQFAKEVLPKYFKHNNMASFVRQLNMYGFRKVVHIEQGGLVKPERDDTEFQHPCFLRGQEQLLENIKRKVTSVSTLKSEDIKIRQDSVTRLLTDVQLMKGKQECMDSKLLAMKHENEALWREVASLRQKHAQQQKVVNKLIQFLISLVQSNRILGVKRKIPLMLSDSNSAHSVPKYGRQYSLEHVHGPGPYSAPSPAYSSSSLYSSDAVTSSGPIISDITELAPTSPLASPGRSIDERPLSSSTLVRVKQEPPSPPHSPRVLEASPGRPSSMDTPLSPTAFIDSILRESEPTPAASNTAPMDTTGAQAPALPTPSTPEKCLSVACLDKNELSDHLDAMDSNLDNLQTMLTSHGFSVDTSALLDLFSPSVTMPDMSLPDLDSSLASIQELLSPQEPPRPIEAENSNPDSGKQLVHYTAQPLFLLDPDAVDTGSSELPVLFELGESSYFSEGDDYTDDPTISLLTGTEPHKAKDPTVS

BJ [5] = assay: cytotoxicity toward BJ-TERT fibroblasts, dose response, cell-based, RAS-independent, luminescence (AID 1933); assay type: functional; conditions: Homo sapiens
Paired box protein Pax-8 = Paired box protein Pax-8 (Homo sapiens, UniProt Q06710); assay: inhibitors of PAX8-driven TPO luciferase reporter, dose response, RMG-I cells, cherry-pick (AID 687027); assay type: functional, cell-based;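 also: luciferase reporter driven by Pax8 target thyroperoxidase promoter measured by SteadyGlo luminescence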
[6] = cytotoxicity toward DRD oncogenic fibroblasts, dose response, cell-based, non-viral oncogenic, luminescence (AID 1934); assay type: functional; conditions: Homo sapiens
[7] = target: Heat shock protein HSP 90-alpha (Homo sapiens, UniProt P07900); assay type: functional, organism-based
[8] = Luminescence Cell-Based Dose Retest to Confirm Inhibitors of Cancer Stem Cells. [Related pubchem assays (depositor defined):AID2717, AID2721]; assay type: functional; conditions: Homo sapiens
Cytochrome P450 2C9 = Cytochrome P450 2C9 (Homo sapiens, UniProt P11712)
Cytochrome P450 2C19 = Cytochrome P450 2C19 (Homo sapiens, UniProt P33261); assay: Cytochrome panel assay with activity outcomes. Panel member name: p450-cyp2c19 Compounds with AC50 equal or less than 10 uM are considered active; assay type: functional; conditions: read-out: AC50
[9] = miR-122 activators in hepatoma reporter cells, dose response, cell-based, Huh7 psiCHECK-miR122, Renilla luciferase, cherry-picked (AID 651956); assay type: functional;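 also: huh7 hepatoma cells stably carrying a psiCHECK-2 miR-122 sensor plasmid; renilla luciferase signal reporting endogenous miR-122 activity after 48 h compound exposure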
[10] = HEp-2 cell cytotoxicity, dose response, cytotoxicity control for RSV inhibitor project, HTS (AID 2410); assay type: functional; conditions: human respiratory syncytial virus
[11] = inhibitors of HIV Env-driven cell fusion, dose response, cherry-pick (AID 652057); assay type: functional, cell-based
[12] = ZM109 Env clade C HIV-1 fusion inhibitors, dose response, HeLa effector, CEM target cells, luciferase, cherry-pick (AID 652058); assay type: functional, cell-based
[13] = inhibitors of clade B AD8 Env fusion, dose response, cell-based, cherry-pick (AID 652062); assay type: functional;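 also: luciferase signal from cell-cell fusion driven by HIV-1 clade B AD8 Env; potency is for inhibitors of fusion seen as a drop in luminescence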
[14] = off-target signal loss in HeLa-CEM21 co-culture – HeLa F-luc CTL cells, cherry-picked, counter-screen for HIV-1 Env fusion inhibitor project, dose response (AID 652040); assay type: functional, cell-based;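 also: potency for signal decrease marking cytotoxic or nonspecific inhibition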
Cytochrome P450 2D6 = Cytochrome P450 2D6 (Homo sapiens, UniProt P10635);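 also: CYP2D6 member of a cytochrome P450 panel assay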
[15] = intracellular Trypanosoma cruzi inhibitors in host cells – cell-based, plate reader, cherry-pick samples, set 3, dose response (AID 651818); assay type: functional;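 also: compounds incubated with infected cells for about four days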

Chain of Cytochrome P450 3A4 (P08684 whole entry): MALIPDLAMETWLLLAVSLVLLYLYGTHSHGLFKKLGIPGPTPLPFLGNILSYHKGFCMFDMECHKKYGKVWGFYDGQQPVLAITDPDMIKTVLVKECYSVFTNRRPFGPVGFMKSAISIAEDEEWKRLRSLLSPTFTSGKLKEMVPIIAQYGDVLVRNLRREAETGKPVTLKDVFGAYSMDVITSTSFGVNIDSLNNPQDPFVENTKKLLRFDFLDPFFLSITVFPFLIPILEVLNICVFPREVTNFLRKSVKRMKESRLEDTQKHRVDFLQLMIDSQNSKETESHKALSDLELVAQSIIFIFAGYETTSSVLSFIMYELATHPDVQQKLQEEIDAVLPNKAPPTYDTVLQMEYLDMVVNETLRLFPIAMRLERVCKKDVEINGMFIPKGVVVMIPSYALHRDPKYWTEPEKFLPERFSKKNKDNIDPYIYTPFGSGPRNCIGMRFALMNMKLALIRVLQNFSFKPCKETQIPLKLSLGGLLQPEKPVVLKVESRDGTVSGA
Chain of Induced myeloid leukemia cell differentiation protein Mcl-1 (Q07820 whole entry): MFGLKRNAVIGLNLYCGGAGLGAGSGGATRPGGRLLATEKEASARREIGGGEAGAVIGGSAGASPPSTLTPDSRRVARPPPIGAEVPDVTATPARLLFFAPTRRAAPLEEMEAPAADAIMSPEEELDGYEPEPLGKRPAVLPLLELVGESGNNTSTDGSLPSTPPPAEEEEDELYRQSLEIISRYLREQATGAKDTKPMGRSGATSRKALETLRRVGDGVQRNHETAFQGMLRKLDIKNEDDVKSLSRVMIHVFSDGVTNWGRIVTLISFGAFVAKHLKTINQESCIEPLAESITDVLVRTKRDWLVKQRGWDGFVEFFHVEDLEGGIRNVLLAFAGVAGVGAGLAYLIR
Chain of Cytochrome P450 2C9 (P11712 whole entry): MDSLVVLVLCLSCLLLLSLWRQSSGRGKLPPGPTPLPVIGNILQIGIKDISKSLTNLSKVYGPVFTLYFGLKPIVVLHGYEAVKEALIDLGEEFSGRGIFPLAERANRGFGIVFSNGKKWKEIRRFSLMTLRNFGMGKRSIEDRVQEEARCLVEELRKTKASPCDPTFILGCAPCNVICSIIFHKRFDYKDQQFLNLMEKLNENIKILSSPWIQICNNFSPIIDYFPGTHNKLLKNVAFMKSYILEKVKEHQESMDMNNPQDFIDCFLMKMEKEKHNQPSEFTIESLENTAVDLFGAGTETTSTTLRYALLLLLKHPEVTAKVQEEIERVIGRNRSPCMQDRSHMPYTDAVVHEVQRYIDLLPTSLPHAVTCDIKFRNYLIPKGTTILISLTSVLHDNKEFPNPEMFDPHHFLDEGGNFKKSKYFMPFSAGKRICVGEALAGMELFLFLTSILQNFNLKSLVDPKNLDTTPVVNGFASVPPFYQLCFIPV
Chain of Paired box protein Pax-8 (Q06710 whole entry): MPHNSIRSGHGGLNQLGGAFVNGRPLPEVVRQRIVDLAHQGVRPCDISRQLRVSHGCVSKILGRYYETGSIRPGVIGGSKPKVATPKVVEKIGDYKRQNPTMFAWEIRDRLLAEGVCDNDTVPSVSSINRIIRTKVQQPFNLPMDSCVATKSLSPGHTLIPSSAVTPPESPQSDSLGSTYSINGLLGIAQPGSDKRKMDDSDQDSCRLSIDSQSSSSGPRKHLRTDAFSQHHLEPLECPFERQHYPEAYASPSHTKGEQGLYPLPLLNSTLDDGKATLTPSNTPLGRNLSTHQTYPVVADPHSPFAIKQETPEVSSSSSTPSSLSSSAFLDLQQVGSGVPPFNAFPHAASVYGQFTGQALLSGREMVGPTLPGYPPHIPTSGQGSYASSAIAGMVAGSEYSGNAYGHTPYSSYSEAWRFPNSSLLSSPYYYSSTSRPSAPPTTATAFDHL
Chain of Cytochrome P450 2D6 (P10635 whole entry): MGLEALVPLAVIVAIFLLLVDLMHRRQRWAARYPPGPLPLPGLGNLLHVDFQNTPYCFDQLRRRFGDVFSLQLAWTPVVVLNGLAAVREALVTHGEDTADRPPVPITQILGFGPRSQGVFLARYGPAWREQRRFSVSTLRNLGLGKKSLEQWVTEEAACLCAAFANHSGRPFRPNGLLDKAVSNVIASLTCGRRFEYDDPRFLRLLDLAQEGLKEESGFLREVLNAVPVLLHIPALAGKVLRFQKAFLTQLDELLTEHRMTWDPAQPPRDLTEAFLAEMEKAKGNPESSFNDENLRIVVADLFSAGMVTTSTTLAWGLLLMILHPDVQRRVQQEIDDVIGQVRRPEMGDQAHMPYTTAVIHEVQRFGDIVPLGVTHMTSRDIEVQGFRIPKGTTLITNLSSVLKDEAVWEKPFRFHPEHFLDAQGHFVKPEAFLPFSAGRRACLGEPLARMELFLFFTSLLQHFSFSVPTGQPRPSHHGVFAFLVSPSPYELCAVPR
Chain of Large T antigen (P03070 whole entry): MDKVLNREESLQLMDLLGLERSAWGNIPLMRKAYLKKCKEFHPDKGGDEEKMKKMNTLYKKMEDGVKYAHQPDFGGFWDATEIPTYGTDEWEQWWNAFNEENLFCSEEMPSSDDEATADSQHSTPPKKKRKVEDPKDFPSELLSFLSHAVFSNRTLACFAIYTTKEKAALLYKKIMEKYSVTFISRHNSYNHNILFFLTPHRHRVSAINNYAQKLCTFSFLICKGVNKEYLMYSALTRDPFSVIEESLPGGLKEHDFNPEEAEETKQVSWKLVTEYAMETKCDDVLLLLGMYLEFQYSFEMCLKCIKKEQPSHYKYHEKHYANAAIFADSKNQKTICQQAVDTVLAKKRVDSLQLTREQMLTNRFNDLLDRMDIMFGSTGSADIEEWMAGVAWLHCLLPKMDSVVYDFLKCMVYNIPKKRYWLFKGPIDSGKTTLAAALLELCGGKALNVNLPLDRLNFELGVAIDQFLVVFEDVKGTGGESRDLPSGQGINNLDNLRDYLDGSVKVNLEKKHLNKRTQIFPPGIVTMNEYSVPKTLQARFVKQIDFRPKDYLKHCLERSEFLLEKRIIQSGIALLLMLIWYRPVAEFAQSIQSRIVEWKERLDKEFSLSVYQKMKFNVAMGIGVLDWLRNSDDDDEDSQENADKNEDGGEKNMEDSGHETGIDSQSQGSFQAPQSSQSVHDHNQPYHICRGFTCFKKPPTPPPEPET
Chain of Cytochrome P450 2C19 (P33261 whole entry): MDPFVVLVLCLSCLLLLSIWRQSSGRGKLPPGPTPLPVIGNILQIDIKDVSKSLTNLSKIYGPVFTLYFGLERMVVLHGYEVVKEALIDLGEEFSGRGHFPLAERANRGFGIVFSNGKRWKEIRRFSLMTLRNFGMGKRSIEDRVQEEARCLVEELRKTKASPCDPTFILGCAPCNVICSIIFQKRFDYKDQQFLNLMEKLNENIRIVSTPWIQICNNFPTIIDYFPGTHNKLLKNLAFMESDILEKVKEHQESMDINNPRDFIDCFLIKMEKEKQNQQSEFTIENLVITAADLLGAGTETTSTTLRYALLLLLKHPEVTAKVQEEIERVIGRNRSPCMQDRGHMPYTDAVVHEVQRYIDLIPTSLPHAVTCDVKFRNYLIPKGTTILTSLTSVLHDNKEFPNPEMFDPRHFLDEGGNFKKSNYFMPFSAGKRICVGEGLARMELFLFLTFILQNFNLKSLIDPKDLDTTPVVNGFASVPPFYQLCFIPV

COc1ccc(/C=C/C(=O)c2nc3ccccc3n2CC(=O)c2ccc(OC)cc2)cc1
IC50 (Protein skinhead-1): > 100 µM (inactive)

C[C@@]12CC[C@H]3[C@@H](CCC4=CC(=O)CC[C@]43C)[C@H]1CC[C@H]2C(=O)CO
AC50 (Cytochrome P450 3A4): inconclusive

CCOc1cc(/C=C2/C(=N)N3N=C(c4ccccc4)SC3=NC2=O)ccc1O
IC50 [1]: 3.61 µM (active) | IC50 (Large T antigen): 10.2 µM (active) | IC50 (Aminopeptidase N): 30.1 µM (active)

S=C1SCN(Cc2cccnc2)CN1Cc1cccnc1
EC50 (BJ [2]): 26.1 µM (active) | EC50 (BJ [3]): 4.49 µM (active) | CC50 (Vero): 10.4 µM (active) | EC50 [4]: > 195 µM (not active) | EC50 (BJ [5]): 2.48 µM (active) | AC50 (Paired box protein Pax-8): 3.62 µM (active) | EC50 [6]: 8.06 µM (inconclusive) | AC50 [7]: 4.53 µM (active)

COc1cc(NC(=O)c2csc(N)n2)cc(C(=O)Nc2cccc(C(F)(F)F)c2)c1
EC50 (BJ [2]): 111 µM (active) | EC50 (BJ [3]): 52.4 µM (inconclusive) | EC50 (BJ [5]): 8.47 µM (inconclusive) | AC50 [8]: 2.19 µM (active) | EC50 [6]: 4.71 µM (active)

CCSc1ncnc2c1sc1nc(-c3ccco3)c3c(c12)CC(C)(C)OC3
AC50 (Cytochrome P450 2C9): 2 µM (inconclusive) | AC50 (Cytochrome P450 3A4): inconclusive

N#Cc1ccc(CN2CCC3(CC2)CCN(C(=O)Oc2ccccc2)CC3)cc1
AC50 (Cytochrome P450 3A4): inconclusive

COc1ccccc1Nc1nc(-c2sc(NC(=O)c3ccc([N+](=O)[O-])cc3)nc2C)cs1
IC50 [1]: 0.449 µM (active) | AC50 (Cytochrome P450 2C9): 3.55 µM (inconclusive) | AC50 (Cytochrome P450 2C19): 1.58 µM (inconclusive)

CC(=O)O[C@H]1CC[C@@]2(C)[C@@H](CC[C@H]3[C@H]2CC(=O)[C@@]2(C)[C@@H]3C[C@H]3CC(C)=CC(=O)[C@H]32)C1
AC50 (Cytochrome P450 3A4): inconclusive

Cc1nc(Oc2ccccc2)c2oc3ccccc3c2n1
IC50 (Protein skinhead-1): > 100 µM (inactive)

COc1ccc(C(=O)C2CCCN(Cc3cccn3-c3ccccn3)C2)c(OC)c1 (stereo not given)
AC50 [9]: 21.8 µM (active)

O=C(Oc1ccccc1)N1CCC2(CC1)CCN(c1ccccc1)CC2
AC50 (Cytochrome P450 3A4): inconclusive

O=C(/C=C/c1ccc(Cl)cc1)Nc1ccc(CN2CCOCC2)cc1
IC50 (Protein skinhead-1): 14.3 µM (active)

COc1ccc(NC2CC(=O)N(CCc3ccccc3)C2=O)cc1 (stereo not given)
IC50 (Protein skinhead-1): > 100 µM (inactive)

Clc1ccc2c(c1)c1cc(Cl)ccc1n2CN1CCOCC1
IC50 (Protein skinhead-1): 74.5 µM (inactive) | CC50 [10]: 17.9 µM (active)

CCOC(=O)c1c(C)c(C)n2c1NC(=O)C2
IC50 (Protein skinhead-1): > 100 µM (inactive)

Cc1nc2ccc3nc(NC(=O)c4ccc(S(=O)(=O)N5CCOCC5)cc4)sc3c2s1
AC50 (Cytochrome P450 3A4): inconclusive

O=C(NCc1nc2ccccc2[nH]1)C1=C[C@H](C2CCCCC2)C[C@H](OCc2ccc(CO)cc2)O1
CC50 (Vero): 16.1 µM (active) | IC50 (Protein skinhead-1): > 100 µM (inactive)

Cc1ccc2c(c1)[C@H]1[C@H](CO2)[C@H](c2ccccc2)[C@]2(C)C(=O)N(CC3CCCO3)CC(=O)N12 (stereo not given in full)
AC50 [11]: 2.63 µM (active) | AC50 [12]: 2.05 µM (active) | AC50 [13]: 9.2 µM (active) | AC50 [14]: 4.49 µM (active)

C#CC[N+](CC)(CC)CC#Cc1cccc(Cl)c1.[Br-]
AC50 (Cytochrome P450 3A4): inconclusive | AC50 (Cytochrome P450 2D6): 2.24 µM (inconclusive)

CC[C@]1(C(=O)OC)[C@H]2C(=O)N(Cc3ccccc3)C(=O)[C@H]2[C@H]2CN=C(SCc3ccc(C)cc3)N21
AC50 [11]: 2.43 µM (active) | AC50 [12]: 1.56 µM (active) | AC50 [13]: 3.41 µM (active) | AC50 [14]: 3.14 µM (active)

O=C1[C@H]2[C@@H](C3CC3)N3C(=O)CN(CC4CC4)C(=O)[C@@]3(Cc3ccccc3)[C@H]2C(=O)N1c1ccccc1
AC50 [11]: 1.76 µM (active) | AC50 [12]: 3.84 µM (active) | AC50 [13]: 1.69 µM (active) | AC50 [14]: 3.51 µM (active)

C/C=C/c1ccc([C@H]2[C@@H](CO)N(Cc3ccccn3)[C@H]2CNC(=O)CC)cc1
AC50 [9]: 53.3 µM (active)

C[C@H]1CN([C@@H](C)CO)C(=O)c2cccc(NC(=O)Nc3cccc4ccccc34)c2O[C@H]1CN(C)Cc1ccc(C(=O)Nc2ccccc2N)cc1
AC50 [15]: 3.59 µM (active)

C[C@@H]1CN([C@H](C)CO)C(=O)c2cccc(NS(=O)(=O)c3cccs3)c2O[C@@H]1CN(C)Cc1ccc(C(F)(F)F)cc1
AC50 [11]: < 0.26 µM (active) | AC50 [12]: < 0.26 µM (active) | AC50 [13]: 2.1 µM (active)
